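Cells were grown in 96-well plates and exposed to each compound for 48 hours at five concentrations; endpoints were interpolated linearly between bracketing concentrations, or set to the highest concentration if not reached. GI50 = concentration required for 50% inhibition of growth.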 Activity calls are given as the source filed them. Rule as the data show it: active = GI50 up to about 1.1 µM and inactive = higher.
Legend:
Test in all cases: NCI tumour cell line growth inhibition, 48 h
786-0 = test system: 786-0
A549 = test system: A549
CAKI-1 = test system: CAKI-1
HT-29 = test system: HT-29
KM12 = test system: KM12
MOLT-4 = test system: MOLT-4
Malme-3M = test system: Malme-3M
OVCAR-3 = test system: OVCAR-3
OVCAR-4 = test system: OVCAR-4
OVCAR-5 = test system: OVCAR-5
SF-268 = test system: SF-268
SF-295 = test system: SF-295
SK-OV-3 = test system: SK-OV-3
SNB-19 = test system: SNB-19
SNB-75 = test system: SNB-75
U-251 = test system: U-251
SR = test system: SR

| SMILES | GI50 (786-0) | GI50 (A549) | GI50 (CAKI-1) | GI50 (HT-29) | GI50 (KM12) | GI50 (MOLT-4) | GI50 (Malme-3M) | GI50 (OVCAR-3) | GI50 (OVCAR-4) | GI50 (OVCAR-5) | GI50 (SF-268) | GI50 (SF-295) | GI50 (SK-OV-3) | GI50 (SNB-19) | GI50 (SNB-75) | GI50 (U-251) | GI50 (SR) |
| --- | --- | --- | --- | --- | --- | --- | --- | --- | --- | --- | --- | --- | --- | --- | --- | --- | --- |
| CC1CCCP(=O)(c2ccccc2)CCC1 (stereo not drawn) | > 100 µM (inactive) | > 100 µM (inactive) | > 100 µM (inactive) | > 100 µM (inactive) | > 100 µM (inactive) | > 100 µM (inactive) | > 100 µM (inactive) | > 100 µM (inactive) | > 100 µM (inactive) | > 100 µM (inactive) | > 100 µM (inactive) | > 100 µM (inactive) | > 100 µM (inactive) | > 100 µM (inactive) | > 100 µM (inactive) | > 100 µM (inactive) | – |
| O=C(Cc1nc2ccccc2s1)C(=O)Nc1cccc(Cl)c1 | > 100 µM (inactive) | > 100 µM (inactive) | > 100 µM (inactive) | > 100 µM (inactive) | > 100 µM (inactive) | – | > 100 µM (inactive) | > 100 µM (inactive) | > 100 µM (inactive) | > 100 µM (inactive) | > 100 µM (inactive) | > 100 µM (inactive) | > 100 µM (inactive) | > 100 µM (inactive) | 48.9 µM (inactive) | > 100 µM (inactive) | – |
| COc1cc(CCCC(O)COc2cccc3c2C2(O)CCCCCC32)cc(OC)c1 (stereo not drawn) | 15.1 µM (inactive) | 16.1 µM (inactive) | 20.8 µM (inactive) | 7.26 µM (inactive) | 17.2 µM (inactive) | 17.7 µM (inactive) | 16 µM (inactive) | – | 18.2 µM (inactive) | 15.4 µM (inactive) | 17.9 µM (inactive) | 16.5 µM (inactive) | 23.1 µM (inactive) | 17.8 µM (inactive) | 12.1 µM (inactive) | 18.9 µM (inactive) | – |
| N#CC1(Cc2ccccc2[N+](=O)[O-])c2ccccc2C2C(N1C(=O)c1ccccc1)C2(Cl)Cl (stereo not drawn) | > 100 µM (inactive) | > 100 µM (inactive) | > 100 µM (inactive) | > 100 µM (inactive) | > 100 µM (inactive) | > 100 µM (inactive) | > 100 µM (inactive) | > 100 µM (inactive) | 13.2 µM (inactive) | > 100 µM (inactive) | > 100 µM (inactive) | > 100 µM (inactive) | > 100 µM (inactive) | > 100 µM (inactive) | 52.6 µM (inactive) | > 100 µM (inactive) | – |
| Cc1nc2sccn2c1C(=O)NC(=O)Nc1ccc(Cl)cc1 | 48.2 µM (inactive) | 57.4 µM (inactive) | > 100 µM (inactive) | > 100 µM (inactive) | > 100 µM (inactive) | > 100 µM (inactive) | > 100 µM (inactive) | 60.3 µM (inactive) | > 100 µM (inactive) | > 100 µM (inactive) | 39.6 µM (inactive) | 70.8 µM (inactive) | – | 42.2 µM (inactive) | 24.3 µM (inactive) | 50.5 µM (inactive) | – |
| CN(CN1C(=O)C2Cc3ccccc3CN2C1=O)c1ccccn1 (stereo not drawn) | > 100 µM (inactive) | > 100 µM (inactive) | > 100 µM (inactive) | – | > 100 µM (inactive) | > 100 µM (inactive) | > 100 µM (inactive) | > 100 µM (inactive) | > 100 µM (inactive) | > 100 µM (inactive) | > 100 µM (inactive) | > 100 µM (inactive) | – | > 100 µM (inactive) | – | > 100 µM (inactive) | > 100 µM (inactive) |
| CC(=O)OCC1OC(OC2C(COC(C)=O)OC(Sc3ccccc3C)C(OC(C)=O)C2OC(C)=O)C(OC(C)=O)C(OC(C)=O)C1OC(C)=O (stereo not drawn) | > 100 µM (inactive) | > 100 µM (inactive) | > 100 µM (inactive) | > 100 µM (inactive) | > 100 µM (inactive) | > 100 µM (inactive) | > 100 µM (inactive) | – | > 100 µM (inactive) | > 100 µM (inactive) | > 100 µM (inactive) | > 100 µM (inactive) | > 100 µM (inactive) | > 100 µM (inactive) | > 100 µM (inactive) | > 100 µM (inactive) | > 100 µM (inactive) |
| N=C(c1ccccc1)N(c1ccccc1)c1ccccc1 | 28.1 µM (inactive) | > 100 µM (inactive) | > 100 µM (inactive) | 42.5 µM (inactive) | 25.2 µM (inactive) | – | 23.4 µM (inactive) | – | 88.9 µM (inactive) | 76.7 µM (inactive) | 48.6 µM (inactive) | > 100 µM (inactive) | – | > 100 µM (inactive) | > 100 µM (inactive) | > 100 µM (inactive) | 30.7 µM (inactive) |
| CCOC(=O)/C(C(C)=O)=C1/N[C@H](C(=O)OCC)CS1 | > 100 µM (inactive) | > 100 µM (inactive) | > 100 µM (inactive) | > 100 µM (inactive) | > 100 µM (inactive) | > 100 µM (inactive) | > 100 µM (inactive) | > 100 µM (inactive) | > 100 µM (inactive) | > 100 µM (inactive) | > 100 µM (inactive) | > 100 µM (inactive) | – | > 100 µM (inactive) | > 100 µM (inactive) | > 100 µM (inactive) | > 100 µM (inactive) |
| CC1=CC2CC(C)=C(CC[C@]3(C)CC[C@H]([C@@H](C)C(=O)O)OO3)C(C)(C)C2CC1 (stereo partly drawn) | 1.45 µM (inactive) | 0.45 µM (active) | 1.17 µM (inactive) | 0.182 µM (active) | 0.128 µM (active) | – | 0.771 µM (active) | 1.63 µM (inactive) | 0.442 µM (active) | 2.34 µM (inactive) | 1.62 µM (inactive) | 1.36 µM (inactive) | 2.2 µM (inactive) | 1.67 µM (inactive) | 0.853 µM (active) | 0.356 µM (active) | 0.195 µM (active) |
| CC(=O)O[C@@]1(C)[C@@H](C)C(=O)O[C@@H]2CCN3CC=C(COC(=O)[C@]1(C)O)[C@H]23 | > 100 µM (inactive) | > 100 µM (inactive) | > 100 µM (inactive) | > 100 µM (inactive) | > 100 µM (inactive) | > 100 µM (inactive) | > 100 µM (inactive) | > 100 µM (inactive) | > 100 µM (inactive) | > 100 µM (inactive) | > 100 µM (inactive) | > 10 µM (inactive) | – | > 100 µM (inactive) | 41 µM (inactive) | > 100 µM (inactive) | > 100 µM (inactive) |
| CC1(C)N=C(c2ccccn2)C(c2ccccn2)=NC1(C)C | > 100 µM (inactive) | > 100 µM (inactive) | > 100 µM (inactive) | > 100 µM (inactive) | > 100 µM (inactive) | > 100 µM (inactive) | > 100 µM (inactive) | > 100 µM (inactive) | > 100 µM (inactive) | > 100 µM (inactive) | > 100 µM (inactive) | > 100 µM (inactive) | – | > 100 µM (inactive) | – | > 100 µM (inactive) | > 100 µM (inactive) |
| N#CC(C(=O)/C(=N/NC(=O)c1ccccc1O)C(C#N)c1ccc(Br)cc1)c1ccc(Br)cc1 (stereo not drawn) | 12.7 µM (inactive) | 14.2 µM (inactive) | – | 13.3 µM (inactive) | 12.9 µM (inactive) | 3.93 µM (inactive) | 11.9 µM (inactive) | 13.5 µM (inactive) | 15.6 µM (inactive) | 15.7 µM (inactive) | > 10 µM (inactive) | 14.5 µM (inactive) | 36.8 µM (inactive) | 11.6 µM (inactive) | 2.99 µM (inactive) | 11.6 µM (inactive) | – |
| COc1ccccc1NC(=O)CC(=O)N1N=C(c2ccccc2)C(/N=N/c2ccc(Cl)cc2)C1=O (stereo not drawn) | 13.9 µM (inactive) | 25.1 µM (inactive) | 19.5 µM (inactive) | 42.7 µM (inactive) | 49.5 µM (inactive) | 41.1 µM (inactive) | – | 28.4 µM (inactive) | 25.2 µM (inactive) | > 100 µM (inactive) | 50.2 µM (inactive) | 30.5 µM (inactive) | 21.9 µM (inactive) | 36 µM (inactive) | 19.7 µM (inactive) | 30.9 µM (inactive) | 55.1 µM (inactive) |
| O=C1C[C@H]2CCCN2[C@@H](c2ccccc2)C1 | > 100 µM (inactive) | > 100 µM (inactive) | > 100 µM (inactive) | > 100 µM (inactive) | > 100 µM (inactive) | > 100 µM (inactive) | > 100 µM (inactive) | > 100 µM (inactive) | > 100 µM (inactive) | > 100 µM (inactive) | > 100 µM (inactive) | > 100 µM (inactive) | > 100 µM (inactive) | > 100 µM (inactive) | > 100 µM (inactive) | > 100 µM (inactive) | – |
| NC(=O)C(c1ccccc1)N1CCOCC1 (stereo not drawn) | > 100 µM (inactive) | > 100 µM (inactive) | > 100 µM (inactive) | > 100 µM (inactive) | > 100 µM (inactive) | > 100 µM (inactive) | > 100 µM (inactive) | > 100 µM (inactive) | > 100 µM (inactive) | > 100 µM (inactive) | > 100 µM (inactive) | > 100 µM (inactive) | > 100 µM (inactive) | – | > 100 µM (inactive) | > 100 µM (inactive) | > 100 µM (inactive) |
| Nc1c2ccccc2nc2c(C(=O)Nc3ccc(S(N)(=O)=O)cc3)cccc12 | > 100 µM (inactive) | > 100 µM (inactive) | > 100 µM (inactive) | > 100 µM (inactive) | 32.1 µM (inactive) | 11.1 µM (inactive) | 74 µM (inactive) | 33.7 µM (inactive) | > 100 µM (inactive) | > 100 µM (inactive) | 42.3 µM (inactive) | > 100 µM (inactive) | > 100 µM (inactive) | 92.3 µM (inactive) | 61.8 µM (inactive) | 49 µM (inactive) | – |
